Source: patent US8404670B2 (Sunovion Pharmaceuticals Inc., priority 2009, dated 2013)

Molecular target: T1, human histamine H3 receptor (Homo sapiens, UniProt Q9Y5N1)
T1 construct: host or cells: cells expressing the human H3 receptor
Test: H3 GTPγS assay (SPA method), histamine H3 in vitro assay
Assay type: biochemical
Conditions: GTPγ[35S] binding to membranes of cells expressing human H3; antagonist mode with R-γ-Me-Histamine at EC80 (30 nM); in one embodiment HCl salts tested; read-out: Potency (functional potency as indicated by IC50)
Protocol: H3 GTPγS assay (SPA method) was performed at EuroScreen (Belgium, ES-392-C) using conventional methods. Briefly, cells expressing the human histamine H3 receptor were homogenized in 15 mM Tris-HCl pH 7.5, 2 mM MgCl2, 0.3 mM EDTA, and 1 mM EGTA. Membranes were washed twice in the above tris buffer, collected by centrifugation (40,000×g, 25 min), and re-suspended in 75 mM Tris-HCl pH 7.5, 12.5 mM MgCl2, 0.3 mM EDTA, 1 mM EGTA, and 250 mM sucrose. Membranes were frozen in liquid nitrogen until use. On the day of the assay, membranes were thawed and diluted in assay buffer (20 mM HEPES pH 7.4, 100 mM NaCl, 10 μg/ml saponin, 1 mM MgCl2) to give 500 μg/ml and mixed (v/v) with GDP in assay buffer for a final GDP concentration of 10 μM and incubated on ice for at least 15 min. PVT-WGA beads (Amersham, RPNQ001) were diluted in assay buffer at 50 mg/mL and mixed with GTPγ[^35S] (Amersham, SJ1308) diluted in assay buffer to give ˜25,000 dpm/10 μL and mixed vol/vol just before the start of the reaction. The reaction was started by adding 50 μL of test compound, 20 μL of the membranes:GDP mix, 10 μL of buffer, and 20 μL of the GTPγ[^35S]:beads mix in a 96 well plate Optiplate™ (PerkinElmer, 6005299) covered with topseal (TopCount™, PerkinElmer), mixed with an orbital shaker for 2 min, incubated for 1 hour at room temperature, centrifuged for 10 min at 2000 rpm, incubated for 1 h at room temperature, and counted for 1 min in a TopCount™ reader (PerkinElmer). Dose response curves and IC50 values (concentration to inhibit the reaction by 50%) were calculated by nonlinear regression using XLfit software (IDBS).
For antagonists testing, 10 μL of a reference agonist (R-γ-Me-Histamine) instead of 10 μL buffer was added at a concentration corresponding to the EC80 (30 nM). Control ligands were R-γ-Me-Histamine (Tocris, 0569), Imetit (Sigma, I-135), Thioperamide (Tocris, 0644), and Clobenpropit (Tocris, 0754) diluted in assay buffer.
The compounds provided herein were tested in the histamine H3 in vitro assay. In one embodiment, the respective HCl salts of the compounds provided herein were prepared using standard chemical procedures and tested in the histamine H3 in vitro assay.

T1 sequence (Q9Y5N1 whole entry): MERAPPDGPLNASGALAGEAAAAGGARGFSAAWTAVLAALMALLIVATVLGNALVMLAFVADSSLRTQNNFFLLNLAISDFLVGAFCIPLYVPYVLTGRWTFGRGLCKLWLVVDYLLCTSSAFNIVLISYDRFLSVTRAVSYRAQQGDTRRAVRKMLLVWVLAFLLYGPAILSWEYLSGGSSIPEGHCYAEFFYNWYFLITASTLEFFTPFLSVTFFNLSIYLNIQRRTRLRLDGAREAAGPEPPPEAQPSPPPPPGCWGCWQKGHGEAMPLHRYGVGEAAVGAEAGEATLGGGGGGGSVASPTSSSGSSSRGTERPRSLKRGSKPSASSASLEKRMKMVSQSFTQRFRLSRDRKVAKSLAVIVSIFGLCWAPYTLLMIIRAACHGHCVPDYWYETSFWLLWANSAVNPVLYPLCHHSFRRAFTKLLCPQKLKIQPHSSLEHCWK

IC50 | SMILES
≤ 10 nM | c1cnc(OCc2ccc3c(c2)nc2n3CCN(C3CCC3)CC2)cn1 [Compound 109]
≤ 100 nM | c1cnnc(-c2ccc3c(c2)nc2n3CCN(C3CCC3)CC2)c1 [Compound 125, 3-cyclobutyl-8-(pyridazin-3-yl)-2,3,4,5-tetrahydro-1H-benzo[4,5]imidazo[1,2-d][1,4]diazepine]
≤ 10 nM | c1cc2c(cc1-c1ccc3cncn3c1)nc1n2CCN(C2CCC2)CC1 [Compound 198, 3-cyclobutyl-8-(imidazo[1,5-a]pyridin-6-yl)-2,3,4,5-tetrahydro-1H-benzo[4,5]imidazo[1,2-d][1,4]diazepine]
≤ 10 nM | O=C(C1CCC1)N1CCCC(c2ccc3c(c2)nc2n3CCN(C3CCC3)CC2)C1 (stereo not shown) [Compound 174]
≤ 100 nM | c1nc2cc(-c3ccc4c(c3)nc3n4CCN(C4CCC4)CC3)ccc2[nH]1 [Compound 217, 8-(1H-benzo[d]imidazol-5-yl)-3-cyclobutyl-2,3,4,5-tetrahydro-1H-benzo[4,5]imidazo[1,2-d][1,4]diazepine]
≤ 10 nM | CC(=O)N1CCc2cc3c(cc2C1)nc1n3CCN(C2CCC2)CC1 [Compound 187, 1-(9-cyclobutyl-3,4,8,9,10,11-hexahydro-1H-[1,4]diazepino[7′,1′:2,3]imidazo[4,5-g]isoquinolin-2(7H)-yl)ethanone]
≤ 100 nM | COc1ccc(-c2ccc3c(c2)nc2n3CCN(C3CCC3)CC2)nn1 [Compound 134, 3-cyclobutyl-8-(6-methoxypyridazin-3-yl)-2,3,4,5-tetrahydro-1H-benzo[4,5]imidazo[1,2-d][1,4]diazepine]
≤ 10 nM | c1cc2c(cc1-c1ccc3nncn3c1)nc1n2CCN(C2CCC2)CC1 [Compound 204, 8-([1,2,4]triazolo[4,3-a]pyridin-6-yl)-3-cyclobutyl-2,3,4,5-tetrahydro-1H-benzo[4,5]imidazo[1,2-d][1,4]diazepine]
≤ 10 nM | c1ccc(CN2CCN(c3ccc4c(c3)nc3n4CCN(C4CCC4)CC3)CC2)cc1 [Compound 224, 8-(4-benzylpiperazin-1-yl)-3-cyclobutyl-2,3,4,5-tetrahydro-1H-benzo[4,5]imidazo[1,2-d][1,4]diazepine]
≤ 1000 nM | OCc1ccc2nc3n(c2c1)CCN(C1CCC1)CC3 [Compound 110, 2-(3-cyclobutyl-2,3,4,5-tetrahydro-1H-[1,4]diazepino[1,7-a]benzimidazol-8-yl)methanol]
≤ 100 nM | N#Cc1ccc(-c2cnc3c(c2)nc2n3CCN(C3CCC3)CC2)cc1 [Compound 237, 4-(7-aza-3-cyclobutyl-2,3,4,5-tetrahydro-1H-[1,4]diazepino[1,7-a]benzimidazol-9-yl)benzonitrile]
≤ 10 nM | Cn1cnc2cc(-c3ccc4c(c3)nc3n4CCN(C4CCC4)CC3)cnc21 [Compound 202, 3-cyclobutyl-8-(3-methyl-3H-imidazo[4,5-b]pyridin-6-yl)-2,3,4,5-tetrahydro-1H-benzo[4,5]imidazo[1,2-d][1,4]diazepine]
≤ 100 nM | c1cc2nc(-c3ccc4c(c3)nc3n4CCN(C4CCC4)CC3)cnc2[nH]1 [Compound 199, 3-cyclobutyl-8-(5H-pyrrolo[2,3-b]pyrazin-2-yl)-2,3,4,5-tetrahydro-1H-benzo[4,5]imidazo[1,2-d][1,4]diazepine]
≤ 100 nM | CN(C)Cc1ccc2c(c1)nc1n2CCN(C2CCC2)CC1 [Compound 105]
≤ 10 nM | Fc1ccc2c(c1)CCN(Cc1ccc3c(c1)nc1n3CCN(C3CCC3)CC1)C2 [Compound 164, 3-cyclobutyl-8-((6-fluoro-3,4-dihydroisoquinolin-2(1H)-yl)methyl)-2,3,4,5-tetrahydro-1H-benzo[4,5]imidazo[1,2-d][1,4]diazepine]
≤ 100 nM | O=C(C1CCC1)N1CCc2cc3c(cc2C1)nc1n3CCN(C2CCC2)CC1 [Compound 186, cyclobutyl(9-cyclobutyl-3,4,8,9,10,11-hexahydro-1H-[1,4]diazepino[7′,1′:2,3]imidazo[4,5-g]isoquinolin-2(7H)-yl)methanone]
≤ 10 nM | FC1(F)CCN(Cc2ccc3c(c2)nc2n3CCN(C3CCC3)CC2)C1 [Compound 166, 3-cyclobutyl-8-((3,3-difluoropyrrolidin-1-yl)methyl)-2,3,4,5-tetrahydro-1H-benzo[4,5]imidazo[1,2-d][1,4]diazepine]
≤ 100 nM | COc1nccc(-c2ccc3c(c2)nc2n3CCN(C3CCC3)CC2)n1 [Compound 132, 3-cyclobutyl-8-(2-methoxypyrimidin-4-yl)-2,3,4,5-tetrahydro-1H-benzo[4,5]imidazo[1,2-d][1,4]diazepine]
≤ 100 nM | c1cc2c(cc1-c1ccc(N3CCCC3)nn1)nc1n2CCN(C2CCC2)CC1 [Compound 133, 3-cyclobutyl-8-(6-(pyrrolidin-1-yl)pyridazin-3-yl)-2,3,4,5-tetrahydro-1H-benzo[4,5]imidazo[1,2-d][1,4]diazepine]
≤ 100 nM | NCc1ccc(-c2cnc3c(c2)nc2n3CCN(C3CCC3)CC2)cc1 [Compound 239]
≤ 10 nM | c1cc2ncc(-c3ccc4c(c3)nc3n4CCN(C4CCC4)CC3)cc2o1 [Compound 201, 6-(3-cyclobutyl-2,3,4,5-tetrahydro-1H-benzo[4,5]imidazo[1,2-d][1,4]diazepin-8-yl)furo[3,2-b]pyridine]

The next lines start with the molecule.

SMILES | IC50
N#Cc1ccc(-c2ccc3c(c2)nc2n3CCN(C3CCOCC3)CC2)cc1 [Compound 38] | ≤ 100 nM
Brc1ccc2nc3n(c2c1)CCN(C1CCC1)CC3 [Compound 40] | ≤ 100 nM
CC1CCC(N2CCc3nc4cc(-c5ccc(C#N)cc5)ccc4n3CC2)C1 (racemic) [Compound 34, rac-cis/trans-4-(3-(3-methylcyclopentyl)-2,3,4,5-tetrahydro-1H-[1,4]diazepino[1,7-a]benzimidazol-9-yl)benzonitrile] | ≤ 100 nM
c1cc2c(cc1N1CCN(C3CCCC3)CC1)nc1n2CCN(C2CCC2)CC1 [Compound 100, 3-cyclobutyl-9-(4-cyclopentylpiperazin-1-yl)-2,3,4,5-tetrahydro-1H-[1,4]diazepino[1,7-a]benzimidazole] | ≤ 10 nM
c1cc2cc(-c3ccc4nc5n(c4c3)CCN(C3CCC3)CC5)ccc2[nH]1 [Compound 43] | ≤ 1000 nM
CC(C1CCC1)N1CCc2nc3cc(Cl)ccc3n2CC1 (stereo not shown) [Compound 11] | ≥ 1000 nM
CN(C)C(=O)c1ccc2c(c1)nc1n2CCN(C2CCC2)CC1 [Compound 57] | ≤ 1000 nM
CNC(=O)c1ccc(Oc2ccc3c(c2)nc2n3CCN(C3CCC3)CC2)nc1 [Compound 50, 6-(3-cyclobutyl-2,3,4,5-tetrahydro-1H-[1,4]diazepino[1,7-a]benzimidazol-9-yloxy)-N-methylnicotinamide] | ≤ 10 nM
N#Cc1ccc(-c2ccc3c(c2)nc2n3CCN(C3CCC3)CC2)cc1 [Compound 2] | ≤ 10 nM
N#Cc1ccc(-c2ccc3c(c2)nc2n3CCN(C3CCC3)CC2)cc1F [Compound 22] | ≤ 10 nM
CC(=O)Nc1ccc(-c2ccc3c(c2)nc2n3CCN(C(C)C3CCC3)CC2)cc1 (stereo not shown) [Compound 7] | ≤ 1000 nM
Cc1nn(C)c(C)c1-c1ccc2c(c1)nc1n2CCN(C2CCC2)CC1 [Compound 26] | ≤ 1000 nM
c1cnc(-c2ccc3c(c2)nc2n3CCN(C3CCC3)CC2)cn1 [Compound 24] | ≤ 10 nM
CN(C)Cc1ccc2nc3n(c2c1)CCN(C1CCC1)CC3 [Compound 87] | ≤ 10 nM
O=C(c1ccc2nc3n(c2c1)CCN(C1CCC1)CC3)N1CCOCC1 [Compound 84] | ≤ 1000 nM
CC(C1CCC1)N1CCc2nc3cc(-c4ccc5[nH]ccc5c4)ccc3n2CC1 (stereo not shown) [Compound 10] | ≥ 1000 nM
c1coc(-c2ccc3nc4n(c3c2)CCN(C2CCC2)CC4)c1 [Compound 90] | ≤ 1000 nM
c1cc2nc3n(c2cc1CN1CCOCC1)CCN(C1CCC1)CC3 [Compound 88, 3-cyclobutyl-8-(morpholin-1-ylmethyl)-2,3,4,5-tetrahydro-1H-[1,4]diazepino[1,7-a]benzimidazole] | ≤ 10 nM
CC(=O)Nc1ccc(-c2ccc3c(c2)nc2n3CCN(C3CCC3)CC2)cc1 [Compound 3] | ≤ 10 nM
CC(=O)Nc1ccc(-c2ccc3nc4n(c3c2)CCN(C2CCC2)CC4)cc1 [Compound 42] | ≤ 1000 nM
c1cnc(Nc2ccc3c(c2)nc2n3CCN(C3CCC3)CC2)cn1 [Compound 65, 3-cyclobutyl-N-(pyrazin-2-yl)-2,3,4,5-tetrahydro-1H-[1,4]diazepino[1,7-a]benzimidazol-9-amine] | ≤ 100 nM
CN1CCC(N2CCc3nc4cc(-c5ccc6[nH]ccc6c5)ccc4n3CC2)CC1 [Compound 13] | ≥ 1000 nM
